Laboratory results published in patent US4323550A, “Halogenohydrates of N,N-disubstituted derivatives of piperazine having anticariogenic properties” (priority 1976, dated 1982).

Tests used:
[1] = Solubility; format: physicochemical
[2] = test system: rats; assay: in vivo; format: in vivo; settings: rat, oral; for Deaths: D + 10, 8 per lot
Procedure: (§1) By way of example there are described below the comparative tests made on difluorohydrate of N,N'-di(hydroxyethyl) piperazine and on fluorohydrate of hexadecylamine or "ELMEX 242".
(§2) The acute toxidity was studies in rats and in mice.
(§3) The animals came from a homogeneous breed. The mice weighed between 19 and 21 g and the rats weighed from 120 to 140 g. The mice were grouped in lots of 10 and the rats in lots of 8.
(§4) The administrations took place orally at a volume of 0.5 ml per 20 g of mouse and 1 ml per 100 g of rat. The LD50 was determined by the method of Lichfield and Wilcoxon.
(§5) As regards the difluorohydrate of N,N'-di(hydroxyethyl) piperazine, the administered solution was prepared by diluting the mother solution to 65.4%, the dilutions being made after having weighed this solution. The administered dose is expressed by weight, taking account of the indicated strength of this solution.
(§6) For the solid "ELMEX 242" an aqueous suspension was prepared with the aid of solubilizing agents (e.g. Tween-polyoxyethylene sorbitan monolaurate). A very thick suspension is then obtained which tends to foam heavily, is difficult to get into the esophageal sound, and the determination of its volume is rendered difficult by the foam.
(§7) The results obtained with the "ELMEX" are therefore rather approximate.

[3] = Acute oral toxicity in mice; format: in vivo; settings: in vivo, mouse, Lichfield and Wilcoxon
Procedure: as §1, §2, §3, §4, §5, §6, §7

[4] = test system: mice; assay: Acute oral toxicity in mice; format: in vivo; settings: mouse
Procedure: as §1, §2, §3, §4, §5, §6, §7

[5] = Penetration of fluorine 18 into dental enamel after topical application (Muhlemann biopsy); set-up: species or system children
Source text: The anticariogenic activity of the difluorohydrate of N,N'-di(hydroxy-ethyl) piperazine has been evidenced by comparison with sodium fluoride known for its cariopreventive topical properties. A comparative study has been made of the penetration into the dental enamel of the fluorine contained in the molecule according to the invention and of the fluorine contained in sodium fluoride.
For this comparison the difluorohydrate of N,N'-di(hydroxy-ethyl) piperazine was marked at the fluorine 18, by isotopic exchange by dissolving some crystals of the product according to the invention in a solution of pure fluorine 18 without entrainer. The same was done for the sodium fluoride.
The study of the penetration of the fluorine into the enamel was made on several teeth to compare the behavior of the product of the invention and of sodium fluoride in supplying fluorine and in the penetration of the latter into the deepest layers of the dental tissue.
The tests were performed on 30 premolar teeth taken from normal children 9 to 11 years old. Eighteen teeth were treated by topical application of the radioactive solutions of the difluoro-hydrate of N,N'-di(hydroxy-ethyl) piperazine or of NaF adjusted to pH=3.5; the other 12 were treated with the same solutions adjusted to a pH of 7.4.
The radioactive solutions are obtained by dissolving 69 mg of the difluorohydrate and 81.3 mg of NaF, respectively, in 1 and 3 ml of fluorine 18 solution without entrainer. Thus solutions titering 1.23% fluorine are obtained.
As the difluorohydrate solution is already at pH=3.5, it is sufficient to acidify the NaF solution by addition of about 0.2 ml hydrochloric acid 6 M, to 3 ml of the radioactive solution.
In this case, the difluorohydrate's nature of organic salt can be preserved and its solution neutralized at 1.23% of fluorine in 1 ml by addition of about 110 mg of its N,N'-di(hydroxyethyl) piperazine base.
For the experimentation one determines two enamel plagues on each tooth. For this, one applies on the crowns, separated from each other by 2 or 3 mm, two round disks of a diameter of 3 mm cut out from adhesive tape. The crown is then covered with a layer of impermeable varnish. When the varnish is dry, the patches of adhesive tape are removed, thus bearing the two zones of enamel to be treated.
The spot application of the fluorinated solution is done by means of a sponge imbibed with 0.5 ml of the solution. This sponge is inserted in a polyethylene tube to limit the surface of contact between tooth and sponge to the circumference of the enamel zone treated.
The sampling of the enamel is done by Muhlemann's biopsy technique: A patch of blotting paper impregnated with 4 microliters of perchloric acid 2 M is applied on the trated enamel for 30 seconds. The enamel is dried with a second patch of blotting paper. It is on these patches which contain the dissolved enamel that we measure the radioactivity.
There are given in Table I all the results relating to the acid treatment, in Table II all the results relating to the treatment at neutral pH. The fluorine values are those obtained by measuring the radioactivity of the samples.
The columns […] and N2 represent the mass of fluorine measured on the second biopsy.
We have marked R1 and R1 and R2 the ratios G1 /G2 and N1 /N2, and R3 the ratio. [formula] R1 and R2 permitting to compare the quantities of fluorine at the same depth. R3 permits comparing the accumulation of fluorine in the tooth.

With OCCN1CCN(CCO)CC1 [DI-IODOHYDRATE OF N,N'-DI-(BETA-HYDROXY-ETHYL) PIPERAZINE] the “solubility in water, in alcohols, glycols” value [1] was “soluble”.

For CCCCCCCCCCCCCCCCN [ELMEX 242, fluorohydrate of hexadecylamine], the symptoms / behavior [2] was “The behavior of the animals is normal”, the Deaths ([2]; 125 mg/kg) was 0 and the Deaths ([2]; 150 mg/kg) was 0. The Deaths ([2]; 500 mg/kg) was 0, the LD50 at 240 h [3] was 1250 mg/kg and the “course: death and recovery” value [4] was “Death occurs in a few hours; for others recovery is also fairly rapid”. For the same compound, the symptoms [4] was “The animals have diarrhea. The mice are totally immobile and tremble”, the Deaths ([4]; 600 mg/kg, D + 1, 10 per lot) was 0 and the Deaths ([4]; 600 mg/kg, D + 2, 10 per lot) was 0. For the same compound, the Deaths ([4]; 600 mg/kg, D + 5, 10 per lot) was 0, the Deaths ([4]; 600 mg/kg, D + 10, 10 per lot) was 0 and the Deaths ([4]; 800 mg/kg, D + 1, 10 per lot) was 0. For the same compound, the Deaths ([4]; 800 mg/kg, D + 2, 10 per lot) was 0, the Deaths ([4]; 800 mg/kg, D + 5, 10 per lot) was 0 and the Deaths ([4]; 800 mg/kg, D + 10, 10 per lot) was 0. The Deaths ([4]; 1000 mg/kg, D + 1, 10 per lot) was 1, the Deaths ([4]; 1000 mg/kg, D + 2, 10 per lot) was 2 and the Deaths ([4]; 1000 mg/kg, D + 5, 10 per lot) was 2. For the same compound, the Deaths ([4]; 1000 mg/kg, D + 10, 10 per lot) was 2, the Deaths ([4]; 1250 mg/kg, D + 1, 10 per lot) was 1 and the Deaths ([4]; 1250 mg/kg, D + 2, 10 per lot) was 2. It also gave a Deaths ([4]; 1250 mg/kg, D + 5, 10 per lot) of 3, a Deaths ([4]; 1250 mg/kg, D + 10, 10 per lot) of 3 and a Deaths ([4]; 1500 mg/kg, D + 1, 10 per lot) of 4. It also gave a Deaths ([4]; 1500 mg/kg, D + 2, 10 per lot) of 7, a Deaths ([4]; 1500 mg/kg, D + 5, 10 per lot) of 9 and a Deaths ([4]; 1500 mg/kg, D + 10, 10 per lot) of 9. The Deaths ([4]; 1750 mg/kg, D + 1, 10 per lot) was 3, the Deaths ([4]; 1750 mg/kg, D + 2, 10 per lot) was 4 and the Deaths ([4]; 1750 mg/kg, D + 5, 10 per lot) was 9. The Deaths ([4]; 1750 mg/kg, D + 10, 10 per lot) was 9, the Deaths ([4]; 2000 mg/kg, D + 1, 10 per lot) was 9 and the Deaths ([4]; 2000 mg/kg, D + 2, 10 per lot) was 10. It also gave a Deaths ([4]; 2000 mg/kg, D + 5, 10 per lot) of 10, a Deaths ([4]; 2000 mg/kg, D + 10, 10 per lot) of 10 and a Deaths ([4]; 2500 mg/kg, D + 1, 10 per lot) of 10. It also gave a Deaths ([4]; 2500 mg/kg, D + 2, 10 per lot) of 10, a Deaths ([4]; 2500 mg/kg, D + 5, 10 per lot) of 10 and a Deaths ([4]; 2500 mg/kg, D + 10, 10 per lot) of 10.

With [F-].[Na+] [NaF, sodium fluoride, reference compound] the “mean value of R2” value ([5]; neutral medium, 12 teeth) was 3.6 and the “average fluorine sampled in the two biopsies, acid pH compared with neutral pH” value ([5]; pH 3.5 versus pH 7.4) was 3.6.
